ChEMBL document CHEMBL3044937, “Design, synthesis and acaricidal activity of novel strobilurin derivatives containing pyrimidine moieties” (2010)

Legend:
Type in all cases: functional
[1] = tested on: Tetranychus cinnabarinus; experiment: Acaricidal activity against Tetranychus cinnabarinus (carmine spider mite) infected kidney bean leaf assessed as mortality at 10 mg/l measured after 48 hr in greenhouse conditions relative to control
[2] = tested on: Tetranychus cinnabarinus; experiment: Acaricidal activity against Tetranychus cinnabarinus (carmine spider mite) infected kidney bean leaf assessed as mortality at 40 mg/l measured after 48 hr in greenhouse conditions relative to control
[3] = tested on: Tetranychus cinnabarinus; experiment: Acaricidal activity against Tetranychus cinnabarinus (carmine spider mite) infected kidney bean leaf assessed as mortality at 600 mg/l measured after 48 hr in greenhouse conditions relative to control
[4] = tested on: Tetranychus cinnabarinus; experiment: Acaricidal activity against Tetranychus cinnabarinus (carmine spider mite) infected kidney bean plant assessed as mortality at 100 g a.i./ha measured after 21 days in field conditions relative to control; details: 504 h
[5] = tested on: Tetranychus cinnabarinus; experiment: Acaricidal activity against Tetranychus cinnabarinus (carmine spider mite) infected kidney bean plant assessed as mortality at 50 g a.i./ha measured after 21 days in field conditions relative to control; details: 504 h
[6] = tested on: Tetranychus cinnabarinus; experiment: Acaricidal activity against Tetranychus cinnabarinus (carmine spider mite) infected kidney bean plant assessed as mortality at 50 g a.i./ha measured after 3 days in field conditions relative to control; details: 72 h
[7] = tested on: Tetranychus cinnabarinus; experiment: Acaricidal activity against Tetranychus cinnabarinus (carmine spider mite) infected kidney bean plant assessed as mortality at 100 g a.i./ha measured after 14 days in field conditions relative to control; details: 336 h
[8] = tested on: Tetranychus cinnabarinus; experiment: Acaricidal activity against Tetranychus cinnabarinus (carmine spider mite) infected kidney bean plant assessed as mortality at 50 g a.i./ha measured after 14 days in field conditions relative to control; details: 336 h
[9] = tested on: Tetranychus cinnabarinus; experiment: Acaricidal activity against Tetranychus cinnabarinus (carmine spider mite) infected kidney bean plant assessed as mortality at 100 g a.i./ha measured after 7 days in field conditions relative to control; details: 168 h
[10] = tested on: Tetranychus cinnabarinus; experiment: Acaricidal activity against Tetranychus cinnabarinus (carmine spider mite) infected kidney bean plant assessed as mortality at 50 g a.i./ha measured after 7 days in field conditions relative to control; details: 168 h
[11] = tested on: Tetranychus cinnabarinus; experiment: Acaricidal activity against Tetranychus cinnabarinus (carmine spider mite) infected kidney bean plant assessed as mortality at 100 g a.i./ha measured after 3 days in field conditions relative to control; details: 72 h
[12] = tested on: Tetranychus cinnabarinus; experiment: Acaricidal activity against Tetranychus cinnabarinus (carmine spider mite) infected kidney bean plant assessed as mortality at 200 g a.i./ha measured after 14 days in field conditions relative to control; details: 336 h
[13] = tested on: Tetranychus cinnabarinus; experiment: Acaricidal activity against Tetranychus cinnabarinus (carmine spider mite) infected kidney bean plant assessed as mortality at 200 g a.i./ha measured after 7 days in field conditions relative to control; details: 168 h
[14] = tested on: Tetranychus cinnabarinus; experiment: Acaricidal activity against Tetranychus cinnabarinus (carmine spider mite) infected kidney bean plant assessed as mortality at 200 g a.i./ha measured after 3 days in field conditions relative to control; details: 72 h
[15] = tested on: Tetranychus cinnabarinus; experiment: Acaricidal activity against Tetranychus cinnabarinus (carmine spider mite) infected kidney bean plant assessed as mortality at 200 g a.i./ha measured after 21 days in field conditions relative to control; details: 504 h

Row | Compound | mortality at 10 µg/mL [1] | mortality at 40 µg/mL [2] | mortality at 600 µg/mL [3] | also measured
1 | CO/C=C(/C(=O)OC)c1ccccc1COc1cc(C(F)(F)F)nc(NC2CCCCC2)n1 | 70% | 100% |  | 
2 | CO/C=C(/C(=O)OC)c1ccccc1COc1cc(C(F)(F)F)nc(NCc2ccccc2)n1 | 28% | 65% |  | 
3 | CO/C=C(/C(=O)OC)c1ccccc1COc1cc(C(F)(F)F)nc(NCc2ccccc2Cl)n1 | 32% | 81% |  | 
4 | CO/C=C(/C(=O)OC)c1ccccc1COc1cc(C(F)(F)F)nc(N2CCOCC2)n1 | 0% | 70% |  | 
5 | CO/C=C(/C(=O)OC)c1ccccc1COc1cc(C)nc(Nc2ccccc2)n1 | 0% | 0% | 90% | 
6 | CO/C=C(/C(=O)OC)c1ccccc1COc1nc(Nc2ccccc2)nc(C)c1C | 0% | 0% | 0% | 
7 | CO/C=C(/C(=O)OC)c1ccccc1COc1cc(C2CC2)nc(Nc2ccccc2)n1 | 0% | 0% | 90% | 
8 | CO/N=C(/C(=O)OC)c1ccccc1COc1cc(C(F)(F)F)nc(Nc2ccccc2)n1 | 0% | 0% | 100% | 
9 | COC(=O)N(OC)c1ccccc1COc1cc(C(F)(F)F)nc(Nc2ccccc2)n1 | 0% | 0% | 0% | 
10 | CNC(=O)/C(=N/OC)c1ccccc1COc1cc(C(F)(F)F)nc(Nc2ccccc2)n1 | 0% | 0% | 0% | 
11 | CNC(=O)N(OC)c1ccccc1COc1cc(C(F)(F)F)nc(Nc2ccccc2)n1 | 0% | 0% | 0% | 
12 | CNc1nc(OCc2ccccc2/C(=C\OC)C(=O)OC)cc(C(F)(F)F)n1 | 0% | 0% |  | 
13 | CCNc1nc(OCc2ccccc2/C(=C\OC)C(=O)OC)cc(C(F)(F)F)n1 | 0% | 0% |  | 
14 | CO/C=C(/C(=O)OC)c1ccccc1COc1cc(C(F)(F)F)nc(N(C)C)n1 | 0% | 0% |  | 
15 | CCN(CC)c1nc(OCc2ccccc2/C(=C\OC)C(=O)OC)cc(C(F)(F)F)n1 | 21% | 65% |  | 
16 | CO/C=C(/C(=O)OC)c1ccccc1COc1cc(C(F)(F)F)nc(NC(C)C)n1 | 64% | 95% |  | 
17 | CO/C=C(/C(=O)OC)c1ccccc1COc1cc(C(F)(F)F)nc(NC2CC2)n1 | 0% | 0% |  | 
18 | CO/C=C(/C(=O)OC)c1ccccc1COc1cc(C(F)(F)F)nc(N2CCCCC2)n1 | 0% | 0% |  | 
19 | CO/C=C(/C(=O)OC)c1ccccc1COc1cc(C(F)(F)F)nc(OC(C)C)n1 | 95% | 100% | 100% | mortality at 100 g/ha [4]: 97.9%; mortality at 50 g/ha [5]: 98.2%; mortality at 50 g/ha [6]: 100%; mortality at 100 g/ha [7]: 90.4%; mortality at 50 g/ha [8]: 93.2%; mortality at 100 g/ha [9]: 88%; mortality at 50 g/ha [10]: 77.6%; mortality at 100 g/ha [11]: 100%
20 | CO/C=C(/C(=O)OC)c1ccccc1COc1cc(C(F)(F)F)nc(Nc2ccccc2)n1 | 85% | 100% | 100% | mortality at 100 g/ha [4]: 94.9%; mortality at 50 g/ha [5]: 57.5%; mortality at 200 g/ha [12]: 100%; mortality at 50 g/ha [6]: 62.3%; mortality at 100 g/ha [7]: 91.8%; mortality at 200 g/ha [13]: 96.4%; mortality at 200 g/ha [14]: 92.2%; mortality at 50 g/ha [8]: 87.2%; mortality at 100 g/ha [9]: 53.1%; mortality at 50 g/ha [10]: 65.3%; mortality at 100 g/ha [11]: 78.3%; mortality at 200 g/ha [15]: 100%
